Measurements from patent US7235379B2, “Method and medium for the detection/identification of microorgranisms with esterase activity” (Bio Merieux, priority 2000, dated 2007).
Values joined by “and” are separate entries in the source; they are usually repeats but may differ in a detail not shown here. Equal entries are not always repeated. Structures can show the parent of a compound that is named as a salt. Where two headings read alike, the source gives them in different places.

What was measured:
[1] = system: Salmonella paratyphi A 006
Procedure: (§1) The esterase substrate tested is 5-bromo-3-indolyl nonanoate. A 40 g/l stock solution of substrate is prepared in a mixture of 40% dimethyl sulfoxide and 60% Tween 20. A sufficient volume is added to a supercooled MacConkey medium (without neutral red) to give a substrate concentration of 500 mg/l.
(§2) Microorganisms originating from the Applicant's collection were inoculated onto this medium from a 0.5 McFarland suspension by isolation in three quadrants. The dishes were incubated at 37° C. for 48 hours. The colonies formed were examined visually after 24 and 48 hours of incubation. The coloration of these colonies and the intensity of this coloration were noted.
(§3) Note: In the above Examples, the numbers following the strains correspond to the number of each strain referenced in the Applicant's collection. The intensity of coloration corresponds to an arbitrary scale defined as follows: […]

Salmonella typhi 118 = system: Salmonella typhi 118
Procedure: as §1, §2, §3

Enterobacter cloacae 086 [2] = test: Ex.1 colony coloration, 5-bromo-3-indolyl nonanoate, DMSO/Tween 20, MacConkey; type: cell-based; on intensity of coloration: key: 0: no activity; 0.1: trace of coloration; 0.5: very pale coloration; 1: distinct coloration of low intensity; 2: clear coloration of medium intensity; 3: intense coloration; 4: very intense coloration
Serratia marcescens 038 [3] = test: as above; type: cell-based
[4] = system: Acinetobacter calcoaceticus 034; test: as above; type: cell-based
Salmonella arizonae 018 = test: Ex.2 colony coloration, 5-bromo-3-indolyl nonanoate, methanol/bile salts, MacConkey; type: cell-based; on intensity of coloration: key: 0: no activity; 0.1: trace of coloration; 0.5: very pale coloration; 1: distinct coloration of low intensity; 2: clear coloration of medium intensity; 3: intense coloration; 4: very intense coloration
Procedure: (§4) The esterase substrate tested is 5-bromo-3-indolyl nonanoate. A 25 g/l stock solution of substrate is prepared in methanol to which 5 g/l of bile salts have been added. A sufficient volume is added to a supercooled MacConkey medium (without neutral red) to give a substrate concentration of 500 mg/l.

Enterobacter cloacae 086 [5] = test: as above; type: cell-based
Procedure: as §4

Serratia marcescens 038 [6] = test: as above; type: cell-based
Procedure: as §4

[7] = system: Acinetobacter calcoaceticus 034; test: as above; type: cell-based
Procedure: as §4

[8] = system: Staphylococcus epidermidis 009; test: Ex.3 colony coloration, 5-bromo-4-chloro-3-indolyl nonanoate 250 mg/l, DMSO/Tween 20; type: cell-based; further: key: 0: no activity; 0.1: trace of coloration; 0.5: very pale coloration; 1: distinct coloration of low intensity; 2: clear coloration of medium intensity; 3: intense coloration; 4: very intense coloration
Procedure: The esterase substrate tested is 5-bromo-4-chloro-3-indolyl nonanoate. A 40 g/l stock solution of substrate is prepared in a mixture of 40% dimethyl sulfoxide and 60% Tween 20. A sufficient volume is added to a supercooled MacConkey medium (without neutral red) to give a substrate concentration of 250 mg/l.

In the case of `CCCCC(CC)CCC(CC(C)C)OS(=O)(=O)O` (centres unmarked) [Tergitol 4, 7-ethyl-2-methyl-4-undecanoate hydrogensulfate or its sodium salt], the color ([1]; 2 ml/l, 24 h) is reported as “gray”, the intensity of coloration ([1]; 2 ml/l, 24 h) is reported as 2 and the color ([1]; 2 ml/l, 48 h) is reported as “gray”. For the same compound, the intensity of coloration ([1]; 2 ml/l, 48 h) was 2, the color ([1]; 4 ml/l, 24 h) was “gray” and the intensity of coloration ([1]; 4 ml/l, 24 h) was 2. For the same compound, the color ([1]; 4 ml/l, 48 h) was “gray”, the intensity of coloration ([1]; 4 ml/l, 48 h) was 2.5 and the color ([1]; 8 ml/l, 24 h) was “gray”. The intensity of coloration ([1]; 8 ml/l, 24 h) was 3, the color ([1]; 8 ml/l, 48 h) was “gray” and the intensity of coloration ([1]; 8 ml/l, 48 h) was 3. The color ([1]; 16 ml/l, 24 h) was “gray”, the intensity of coloration ([1]; 16 ml/l, 24 h) was 2 and the color ([1]; 16 ml/l, 48 h) was “gray”. For the same compound, the intensity of coloration ([1]; 16 ml/l, 48 h) was 2, the color (Salmonella typhi 118) was “gray” and the intensity of coloration (Salmonella typhi 118; sodium salt) was 3 and 2 and 3.5. For the same compound, the color (Enterobacter cloacae 086 [2]; 2 ml/l, 24 h) was “gray”, the intensity of coloration (Enterobacter cloacae 086 [2]; 2 ml/l, 24 h) was 0.5 and the color (Enterobacter cloacae 086 [2]; 2 ml/l, 48 h) was “gray”. For the same compound, the intensity of coloration (Enterobacter cloacae 086 [2]; 2 ml/l, 48 h) was 2, the color (Enterobacter cloacae 086 [2]; 4 ml/l, 24 h) was “gray” and the intensity of coloration (Enterobacter cloacae 086 [2]; 4 ml/l, 24 h) was 1. The color (Enterobacter cloacae 086 [2]; 4 ml/l, 48 h) was “gray”, the intensity of coloration (Enterobacter cloacae 086 [2]; 4 ml/l, 48 h) was 3 and the color (Enterobacter cloacae 086 [2]; 8 ml/l, 24 h) was “gray”. The intensity of coloration (Enterobacter cloacae 086 [2]; 8 ml/l, 24 h) was 0.5, the color (Enterobacter cloacae 086 [2]; 8 ml/l, 48 h) was “gray” and the intensity of coloration (Enterobacter cloacae 086 [2]; 8 ml/l, 48 h) was 1. The color (Enterobacter cloacae 086 [2]; 16 ml/l, 24 h) was “gray”, the intensity of coloration (Enterobacter cloacae 086 [2]; 16 ml/l, 24 h) was 0.5 and the color (Enterobacter cloacae 086 [2]; 16 ml/l, 48 h) was “gray”. For the same compound, the intensity of coloration (Enterobacter cloacae 086 [2]; 16 ml/l, 48 h) was 1, the color (Serratia marcescens 038 [3]; 2 ml/l, 24 h) was “gray” and the intensity of coloration (Serratia marcescens 038 [3]; 2 ml/l, 24 h) was 2. For the same compound, the color (Serratia marcescens 038 [3]; 2 ml/l, 48 h) was “gray”, the intensity of coloration (Serratia marcescens 038 [3]; 2 ml/l, 48 h) was 3 and the color (Serratia marcescens 038 [3]; 4 ml/l, 24 h) was “gray”. The intensity of coloration (Serratia marcescens 038 [3]; 4 ml/l, 24 h) was 2, the color (Serratia marcescens 038 [3]; 4 ml/l, 48 h) was “gray” and the intensity of coloration (Serratia marcescens 038 [3]; 4 ml/l, 48 h) was 4. The color (Serratia marcescens 038 [3]; 8 ml/l, 24 h) was “gray”, the intensity of coloration (Serratia marcescens 038 [3]; 8 ml/l, 24 h) was 2 and the color (Serratia marcescens 038 [3]; 8 ml/l, 48 h) was “gray”. For the same compound, the intensity of coloration (Serratia marcescens 038 [3]; 8 ml/l, 48 h) was 4, the color (Serratia marcescens 038 [3]; 16 ml/l, 24 h) was “gray” and the intensity of coloration (Serratia marcescens 038 [3]; 16 ml/l, 24 h) was 2. The color (Serratia marcescens 038 [3]; 16 ml/l, 48 h) was “gray”, the intensity of coloration (Serratia marcescens 038 [3]; 16 ml/l, 48 h) was 4 and the color ([4]; 2 ml/l, 24 h) was “gray”. The intensity of coloration ([4]; 2 ml/l, 24 h) was 2, the color ([4]; 2 ml/l, 48 h) was “gray” and the intensity of coloration ([4]; 2 ml/l, 48 h) was 3. The color ([4]; 4 ml/l, 24 h) was “gray”, the intensity of coloration ([4]; 4 ml/l, 24 h) was 3 and the color ([4]; 4 ml/l, 48 h) was “gray”. The intensity of coloration ([4]; 4 ml/l, 48 h) was 3, the color ([4]; 8 ml/l, 24 h) was “gray” and the intensity of coloration ([4]; 8 ml/l, 24 h) was 3. The color ([4]; 8 ml/l, 48 h) was “gray”, the intensity of coloration ([4]; 8 ml/l, 48 h) was 4 and the color ([4]; 16 ml/l, 24 h) was “gray”. For the same compound, the intensity of coloration ([4]; 16 ml/l, 24 h) was 0.5, the color ([4]; 16 ml/l, 48 h) was “gray” and the intensity of coloration ([4]; 16 ml/l, 48 h) was 0.5. The color (Salmonella arizonae 018; 2 ml/l, 24 h) was “gray”, the intensity of coloration (Salmonella arizonae 018; 2 ml/l, 24 h) was 2.5 and the color (Salmonella arizonae 018; 2 ml/l, 48 h) was “gray”. The intensity of coloration (Salmonella arizonae 018; 2 ml/l, 48 h) was 3, the color (Salmonella arizonae 018; 4 ml/l, 24 h) was “gray” and the intensity of coloration (Salmonella arizonae 018; 4 ml/l, 24 h) was 2. For the same compound, the color (Salmonella arizonae 018; 4 ml/l, 48 h) was “gray”, the intensity of coloration (Salmonella arizonae 018; 4 ml/l, 48 h) was 2.5 and the color (Salmonella arizonae 018; 8 ml/l, 24 h) was “gray”. The intensity of coloration (Salmonella arizonae 018; 8 ml/l, 24 h) was 0.5, the color (Salmonella arizonae 018; 8 ml/l, 48 h) was “gray” and the intensity of coloration (Salmonella arizonae 018; 8 ml/l, 48 h) was 1.5. For the same compound, the color (Salmonella arizonae 018; 16 ml/l, 24 h) was “gray”, the intensity of coloration (Salmonella arizonae 018; 16 ml/l, 24 h) was 0.5 and the color (Salmonella arizonae 018; 16 ml/l, 48 h) was “gray”. For the same compound, the intensity of coloration (Salmonella arizonae 018; 16 ml/l, 48 h) was 2, the color (Enterobacter cloacae 086 [5]; 2 ml/l, 24 h) was “gray” and the intensity of coloration (Enterobacter cloacae 086 [5]; 2 ml/l, 24 h) was 0.5. The color (Enterobacter cloacae 086 [5]; 2 ml/l, 48 h) was “gray”, the intensity of coloration (Enterobacter cloacae 086 [5]; 2 ml/l, 48 h) was 2 and the color (Enterobacter cloacae 086 [5]; 4 ml/l, 24 h) was “gray”. The intensity of coloration (Enterobacter cloacae 086 [5]; 4 ml/l, 24 h) was 1, the color (Enterobacter cloacae 086 [5]; 4 ml/l, 48 h) was “gray” and the intensity of coloration (Enterobacter cloacae 086 [5]; 4 ml/l, 48 h) was 3. For the same compound, the color (Enterobacter cloacae 086 [5]; 8 ml/l, 24 h) was “gray”, the intensity of coloration (Enterobacter cloacae 086 [5]; 8 ml/l, 24 h) was 0.5 and the color (Enterobacter cloacae 086 [5]; 8 ml/l, 48 h) was “gray”. The intensity of coloration (Enterobacter cloacae 086 [5]; 8 ml/l, 48 h) was 1, the color (Enterobacter cloacae 086 [5]; 16 ml/l, 24 h) was “gray” and the intensity of coloration (Enterobacter cloacae 086 [5]; 16 ml/l, 24 h) was 0.5. For the same compound, the color (Enterobacter cloacae 086 [5]; 16 ml/l, 48 h) was “gray”, the intensity of coloration (Enterobacter cloacae 086 [5]; 16 ml/l, 48 h) was 1 and the color (Serratia marcescens 038 [6]; 2 ml/l, 24 h) was “gray”. The intensity of coloration (Serratia marcescens 038 [6]; 2 ml/l, 24 h) was 2, the color (Serratia marcescens 038 [6]; 2 ml/l, 48 h) was “gray” and the intensity of coloration (Serratia marcescens 038 [6]; 2 ml/l, 48 h) was 3. For the same compound, the color (Serratia marcescens 038 [6]; 4 ml/l, 24 h) was “gray”, the intensity of coloration (Serratia marcescens 038 [6]; 4 ml/l, 24 h) was 2 and the color (Serratia marcescens 038 [6]; 4 ml/l, 48 h) was “gray”. For the same compound, the intensity of coloration (Serratia marcescens 038 [6]; 4 ml/l, 48 h) was 4, the color (Serratia marcescens 038 [6]; 8 ml/l, 24 h) was “gray” and the intensity of coloration (Serratia marcescens 038 [6]; 8 ml/l, 24 h) was 2. For the same compound, the color (Serratia marcescens 038 [6]; 8 ml/l, 48 h) was “gray”, the intensity of coloration (Serratia marcescens 038 [6]; 8 ml/l, 48 h) was 4 and the color (Serratia marcescens 038 [6]; 16 ml/l, 24 h) was “gray”. For the same compound, the intensity of coloration (Serratia marcescens 038 [6]; 16 ml/l, 24 h) was 2, the color (Serratia marcescens 038 [6]; 16 ml/l, 48 h) was “gray” and the intensity of coloration (Serratia marcescens 038 [6]; 16 ml/l, 48 h) was 4. For the same compound, the color ([7]; 2 ml/l, 24 h) was “gray”, the intensity of coloration ([7]; 2 ml/l, 24 h) was 2 and the color ([7]; 2 ml/l, 48 h) was “gray”. The intensity of coloration ([7]; 2 ml/l, 48 h) was 3, the color ([7]; 4 ml/l, 24 h) was “gray” and the intensity of coloration ([7]; 4 ml/l, 24 h) was 3. The color ([7]; 4 ml/l, 48 h) was “gray”, the intensity of coloration ([7]; 4 ml/l, 48 h) was 3 and the color ([7]; 8 ml/l, 24 h) was “gray”. The intensity of coloration ([7]; 8 ml/l, 24 h) was 3, the color ([7]; 8 ml/l, 48 h) was “gray” and the intensity of coloration ([7]; 8 ml/l, 48 h) was 4. The color ([7]; 16 ml/l, 24 h) was “gray”, the intensity of coloration ([7]; 16 ml/l, 24 h) was 0.5 and the color ([7]; 16 ml/l, 48 h) was “gray”. It also gave an intensity of coloration ([7]; 16 ml/l, 48 h) of 0.5, an intensity of coloration ([8]; 0.001 ml/l, 24 h) of 2 and an intensity of coloration ([8]; 0.001 ml/l, 48 h) of 2. It also gave an intensity of coloration ([8]; 0.01 ml/l, 24 h) of 3, an intensity of coloration ([8]; 0.01 ml/l, 48 h) of 3 and an intensity of coloration ([8]; 0.1 ml/l, 24 h) of 2. It also gave an intensity of coloration ([8]; 0.1 ml/l, 48 h) of 3, an intensity of coloration ([8]; 1 ml/l (1st col), 24 h) of 2 and an intensity of coloration ([8]; 1 ml/l (1st col), 48 h) of 2. It also gave an intensity of coloration ([8]; 1 ml/l (2nd col), 24 h) of 0.5 and an intensity of coloration ([8]; 1 ml/l (2nd col), 48 h) of 3.
